Source: patent publication US12157730B2, “Heteroaryl derivative, method for producing same, and pharmaceutical composition comprising same as effective component” (VORONOI INC., priority 2019, dated 2024)

Molecular target: T1, Ba/F3 cell EGFR Exon20 ins NPH (Homo sapiens, UniProt P00533, INS773NPH)
T1 construct: expressed in transfected cells; host or cells: Ba/F3
Experiment: Ba/F3 cell proliferation suppression, EGFR Exon20 ins NPH
Type: cell-based
Conditions: GI50 class; Ba/F3 cell line with NPH inserted at Exon20 of EGFR; 72 hours
Protocol: The following experiment was carried out to evaluate the suppression activity of the compounds according to the present invention against proliferation of Ba/F3 and lung cancer cells which express EGFR mutations.
Of the cancer cell lines expressing the EGFR gene, A549 was cultured after adding 10% FBS (HyClone) to DMEM (Invitrogen), and RPMI-1640 (Invitrogen) with 10% FBS was used for the other cancer cells. For the Ba/F3 cells, RPMI-1640 with 10% FBS and 5 ng/ml IL-3 (R&D Systems) was used. The transduced Ba/F3 cells were cultured by adding 1 ug/ml puromycin (Invitrogen) to the same medium.
24 hours before treatment with the compounds, 3000 to 5000 cells were distributed into each well of a white clear bottom 96 well plate (Corning). The compounds were diluted in dimethylsulfoxide (dilution ratio 3:1; 12 concentrations total) and injected 0.5 ul each for a final concentration of 0.3 nM to 50 um. As for measurement of live cells, 72 hours after treatment with the compounds, a CellTiter-Glo luminescent cell-viability reagent (Promega) was used to store the cells at room temperature for 10 minutes, followed by measurement of luminescence using a reader (SynergyNeo, Biotek). Each test was repeated three times.
The result was calculated as a cell growth ratio (%) compared to a control. The program GraphPad Prism version 5.0 was used to draw the graphs and calculate the GI50 values.

Compound	Ba/F3 (NPH) Activity
C=CC(=O)Nc1cc(Nc2cc(N3OCC[C@@H]3c3ccc(F)c(F)c3)ncn2)c(OC)cc1N1CCC(N2C[C@H]3C[C@@H]2CO3)CC1 [compound 498, N-(2-(4-((1R,4R)-2-oxa-5-azabicyclo[2.2.1]heptane-5-yl)piperidine-1-yl)-5-((6-((R)-3-(3,4-difluorophenyl)isoxazolidine-2-yl)pyrimidine-4-yl)amino)-4-methoxyphenyl) acrylamide]	A (GI50 < 50 nM)
C=CC(=O)Nc1cc(Nc2cc(N3OCC[C@@H]3c3ccc(Cl)cc3F)ncn2)c(OC)cc1N1CC[C@@H](N2CCOCC2)C1 [compound 406, N-(5-((6-((R)-3-(4-chloro-2-fluorophenyl)isoxazolidine-2-yl)pyrimidine-4-yl)amino)-4-methoxy-2-((R)-3-morpholinopyrolidine-1-yl)phenyl)acrylamide]	A (GI50 < 50 nM)
C=CC(=O)Nc1cc(Nc2cc(N3OCC[C@@H]3c3ccc(F)cc3F)ncn2)c(OC)cc1N1CCC(N2CCN(C(C)=O)CC2)CC1 [compound 427, N-(2-(4-(4-acetylpiperazine-1-yl)piperidine-1-yl)-5-((6-((R)-3-(2,4-difluorophenyl)isoxazolidine-2-yl)pyrimidine-4-yl)amino)-4-methoxyphenyl) acrylamide]	A (GI50 < 50 nM)
C=CC(=O)Nc1cc(Nc2cc(N3OCC[C@@H]3c3ccc(C)nc3)ncn2)c(OC)cc1N1CCC(N2CC[C@@H](N(C)C)C2)CC1 [Example 231, N-(2-(4-((R)-3-(dimethylamino)pyrolidine-1-yl)piperidine-1-yl)-4-methoxy-5-((6-((R)-3-(6-methylpyridine-3-yl)isoxazolidine-2-yl)pyrimidine-4-yl)amino)phenyl)acrylamide]	B (50 nM ≤ GI50 < 500 nM)
C=CC(=O)Nc1cc(Nc2cc(N3OCC[C@@H]3c3cc(F)ccc3F)ncn2)c(OC)cc1N1CCC(N2C[C@@H](C)N(C3CC3)C[C@H]2C)CC1 [Example 172, N-(2-(4-((2R,5R)-4-cyclopropyl-2,5-dimethylpiperazine-1-yl)piperidine-1-yl)-5-((6-((R)-3-(2,5-difluorophenyl)isoxazolidine-2-yl)pyrimidine-4-yl)amino)-4-methoxypheny) acrylamide]	A (GI50 < 50 nM)
C=CC(=O)Nc1cc(Nc2cc(N3OCC[C@@H]3c3ccc(Cl)c(Cl)c3)ncn2)c(OC)cc1N1CCC(N2CCOCC2)CC1 [compound 683, N-(5-((6-((R)-3-(3,4-dichlorophenyl)isoxazolidine-2-yl)pyrimidine-4-yl)amino)-4-methoxy-2-(4-morpholinopiperidine-1-yl)phenyl)acrylamide]	A (GI50 < 50 nM)
C=CC(=O)Nc1cc(Nc2cc(N3OCC[C@@H]3c3cccc(C(F)(F)F)c3)ncn2)c(OC)cc1N(C)CCN(C)C [compound 449, N-(2-((2-(dimethylamino)ethyl)(methyl)amino)-4-methoxy-5-((6-((R)-3-(3-(trifluoromethyl)phenyl)isoxazolidine-2-yl)pyrimidine-4-yl)amino)phenyl)acrylamide]	A (GI50 < 50 nM)
C=CC(=O)Nc1cc(Nc2cc(N3OCC[C@@H]3c3cccc(Cl)c3Cl)ncn2)c(OC)cc1-n1cnc(C)c1 [compound 527, N-(5-((6-((R)-3-(2,3-dichlorophenyl)isoxazolidine-2-yl)pyrimidine-4-yl)amino)-4-methoxy-2-(4-methyl-1H-imidazole-1-yl)phenyl)acrylamide]	A (GI50 < 50 nM)
C=CC(=O)Nc1cc(Nc2cc(N3OCC[C@H]3Cc3cccnc3)ncn2)c(OC)cc1N1CCC(N2C[C@@H]3C[C@H]2CO3)CC1 [compound 989, N-(2-(4-((1S,4S)-2-oxa-5-azabicyclo [2.2.1]heptane-5-yl)piperidine-1-yl)-4-methoxy-5-((6-((R)-3-(pyridine-3-ylmethyl)isoxazolidine-2-yl)pyrimidine-4-yl)amino)phenyl)acrylamide]	B (50 nM ≤ GI50 < 500 nM)
C=CC(=O)Nc1cc(Nc2cc(N3OCC[C@@H]3c3ccc(F)c(F)c3F)ncn2)c(OC)cc1N1CCC(N2C[C@H]3C[C@@H]2CO3)CC1 [compound 575, N-(2-(4-((1R,4R)-2-oxa-5-azabicyclo [2.2.1]heptane-5-yl)piperidine-1-yl)-4-methoxy-5-((6-((R)-3-(2,3,4-trifluorophenyl)isoxazolidine-2-yl)pyrimidine-4-yl)amino)phenyl)acrylamide]	A (GI50 < 50 nM)
C=CC(=O)Nc1cc(Nc2cc(N3OCC[C@@H]3c3cc(F)ccc3F)ncn2)c(OC)cc1N1CCC(N2CC3CCC(C2)N3C2CC2)CC1 [Example 134, N-(2-(4-(8-cyclopropyl-3,8-diazabicyclo[3.2.1]octan-3-yl)piperidine-1-yl)-5-((6-((R)-3-(2,5-difluorophenyl)isoxazolidine-2-yl)pyrimidine-4-yl)amino)-4-methoxyphenyl) acrylamide]	A (GI50 < 50 nM)
C=CC(=O)Nc1cc(Nc2cc(N3OCC[C@@H]3c3cccc(Cl)c3C)ncn2)c(OC)cc1N1CCC(N2CCN(C3CC3)[C@@H](C)C2)CC1 [Example 153, N-(5-((6-((R)-3-(3-chloro-2-methylphenyl)isoxazolidine-2-yl)pyrimidine-4-yl)amino)-2-(4-((S)-4-cyclopropyl-3-methylpiperazine-1-yl)piperidine-1-yl)-4-methoxyphenyl) acrylamide]	A (GI50 < 50 nM)
C=CC(=O)Nc1cc(Nc2cc(N3OCC[C@@H]3c3cc(F)ccc3F)ncn2)c(OC)cc1N(C)CCN(C)C [compound 882, N-(5-((6-((R)-3-(2,5-difluorophenyl)isoxazolidine-2-yl)pyrimidine-4-yl)amino)-2-((2-(dimethylamino)ethyl)(methyl)amino)-4-methoxyphenyl) acrylamide]	A (GI50 < 50 nM)
C=CC(=O)Nc1cc(Nc2cc(N3OCC[C@@H]3c3ccc(F)c(Cl)c3)ncn2)c(OC)cc1N1CCC(N2CCN(C3CC3)C(C)(C)C2)CC1 [Example 181, N-(5-((6-((R)-3-(3-chloro-4-fluorophenyl)isoxazolidine-2-yl)pyrimidine-4-yl)amino)-2-(4-(4-cyclopropyl-3,3-dimethylpiperazine-1-yl)piperidine-1-yl)-4-methoxyphenyl) acrylamide]	A (GI50 < 50 nM)
C=CC(=O)Nc1cc(Nc2cc(N3OCC[C@@H]3c3ccc(Cl)c(F)c3)ncn2)c(OC)cc1N1CCC(N2CCN(C3COC3)CC2)CC1 [Example 83, N-(5-((6-((R)-3-(4-chloro-3-fluorophenyl)isoxazolidine-2-yl)pyrimidine-4-yl)amino)-4-methoxy-2-(4-(4-(oxetane-3-yl)piperazine-1-yl)piperidine-1-yl)phenyl)acrylamide]	A (GI50 < 50 nM)
C=CC(=O)Nc1cc(Nc2cc(N3OCC[C@@H]3c3cccc(C#N)c3)ncn2)c(OC)cc1N1C[C@H]2CCN(C)[C@H]2C1 [compound 331, N-(5-((6-((R)-3-(3-cyanophenyl)isoxazolidine-2-yl)pyrimidine-4-yl)amino)-4-methoxy-2-((3aR, 6aR)-1-methylhexahydropyrrolo [3,4-b]pyrrole-5(1H)-yl)phenyl)acrylamide]	A (GI50 < 50 nM)
C=CC(=O)Nc1cc(Nc2cc(N3OCC[C@@H]3c3cccc4ccccc34)ncn2)c(OC)cc1N1CCN(CC)CC1 [compound 444, N-(2-(4-ethylpiperazine-1-yl)-4-methoxy-5-((6-((R)-3-(naphthalene-1-yl)isoxazolidine-2-yl)pyrimidine-4-yl)amino)phenyl)acrylamide]	B (50 nM ≤ GI50 < 500 nM)
C=CC(=O)Nc1cc(Nc2cc(N3OCC[C@@H]3c3ccc4ccccc4c3)ncn2)c(OC)cc1N1CCC(N2C[C@@H]3C[C@H]2CO3)CC1 [compound 512, N-(2-(4-((1S,4S)-2-oxa-5-azabicyclo[2.2.1]heptane-5-yl)piperidine-1-yl)-4-methoxy-5-((6-((R)-3-(naphthalene-2-yl)isoxazolidine-2-yl)pyrimidine-4-yl)amino)phenyl)acrylamide]	A (GI50 < 50 nM)
C=CC(=O)Nc1cc(Nc2cc(N3OCC[C@@H]3c3cccc(OC)c3)ncn2)c(OC)cc1N1CCC(N2CCOCC2)CC1 [compound 775, N-(4-methoxy-5-((6-((R)-3-(3-methoxyphenyl)isoxazolidine-2-yl)pyrimidine-4-yl)amino)-2-(4-morpholinopiperidine-1-yl)phenyl)acrylamide]	A (GI50 < 50 nM)
C=CC(=O)Nc1cc(Nc2cc(N3OCC[C@@H]3c3cc(F)cc(F)c3)ncn2)c(OC)cc1N1C[C@H]2C[C@@H]1CO2 [compound 436, N-(2-((1R,4R)-2-oxa-5-azabicyclo[2.2.1]heptane-5-yl)-5-((6-((R)-3-(3,5-difluorophenyl)isoxazolidine-2-yl)pyrimidine-4-yl)amino)-4-methoxyphenyl) acrylamide]	B (50 nM ≤ GI50 < 500 nM)
